For the test, the system named is BDF1 mice, P388 leukemia ip, median survival T/C. Description: NCI In Vivo Anticancer Drug Screen. Data for tumor model P388 Leukemia (intraperitoneal) in B6D2F1 (BDF1) mice. To be noted: endpoint: median survival time, higher = longer survival. In a few lines: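 Antitumour effect was judged in vivo: survival in drug-treated mice, normalised to that of vehicle-dosed controls, gives the reported T/C.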

Setting [1] is: dose: 75.0 mg/kg/injection, schedule: Q01DX009 (ip), vehicle: saline with Tween-80.
Where [2] appears, read: dose: 150.0 mg/kg/injection, schedule: Q01DX009 (ip), vehicle: saline with Tween-80.
Where [3] appears, read: dose: 50.0 mg/kg/injection, schedule: Q01DX009 (ip), vehicle: Klucel (hydroxypropylcellulose) (HPC).
Setting [4] is: dose: 100.0 mg/kg/injection, schedule: Q01DX009 (ip), vehicle: Klucel (hydroxypropylcellulose) (HPC).
Setting [5] is: dose: 200.0 mg/kg/injection, schedule: Q01DX009 (ip), vehicle: Klucel (hydroxypropylcellulose) (HPC).
Where [6] appears, read: dose: 100.0 mg/kg/injection, schedule: Q04DX003 (ip), vehicle: Klucel (hydroxypropylcellulose) (HPC).
[7] abbreviates: dose: 200.0 mg/kg/injection, schedule: Q04DX003 (ip), vehicle: Klucel (hydroxypropylcellulose) (HPC).
The mark [8] stands for this setting: dose: 400.0 mg/kg/injection, schedule: Q04DX003 (ip), vehicle: Klucel (hydroxypropylcellulose) (HPC).
[9] abbreviates: dose: 100.0 mg/kg/injection, schedule: Q04DX003 (ip), vehicle: saline with Tween-80.
Where [10] appears, read: dose: 200.0 mg/kg/injection, schedule: Q04DX003 (ip), vehicle: saline with Tween-80.
The mark [11] stands for this setting: dose: 400.0 mg/kg/injection, schedule: Q04DX003 (ip), vehicle: saline with Tween-80.
The mark [12] stands for this setting: dose: 50.0 mg/kg/injection, schedule: Q01DX009 (ip), vehicle: saline.
The mark [13] stands for this setting: dose: 200.0 mg/kg/injection, schedule: Q04DX003 (ip), vehicle: saline.

Consider 20 molecules from PubChem BioAssay AID328 (DTP/NCI, 2004).

Values joined by “and” are separate entries in the source; they are usually repeats but may differ in a detail not shown here. Identical values can stand only once. Toxic doses and inconclusive results are not listed.

As for `O=C(CC(=O)NN=C1CCCCCC1)NN=C1CCCCCC1`, the T/C (dose: 37.5 mg/kg/injection, schedule: Q01DX009 (ip), vehicle: saline with Tween-80) was 98 % of control; the T/C under setting [1] was 105 % of control; the T/C under setting [2] is 99 % of control.

On to `CC(C)(C)C1CC[N-]CC1.CC(C)(C)C1CC[N-]CC1.[Cl][Pt+2][Cl]`, for which the T/C was 104 % of control (dose: 25.0 mg/kg/injection, schedule: Q01DX009 (ip), vehicle: Klucel (hydroxypropylcellulose) (HPC)); 106 % of control under setting [3]; 117 % of control under setting [4]; 107 % of control under setting [5].

As to `COC(=O)c1cc(Cl)ccc1OCC(=O)Nc1ccc([N+](=O)[O-])cc1`, the T/C by setting is: under setting [6], 95 % of control and 100 % of control; under setting [7], 104 % of control; under setting [8], 87 % of control and 104 % of control.

As to `C=CCCCCCCCCC(=O)Cl`, the T/C is 108 % of control under setting [9], 104 % of control under setting [10] and 100 % of control under setting [11].

For `Cc1ccc(NCC(O)CN2CCOCC2)cc1` (centres undefined), the T/C under setting [6] is 108 % of control.

As for `BrCCN(CCBr)c1cccc(/C=C/c2ccccc2)c1`, the T/C reads like this: under setting [3], 99 % of control; under setting [4], 101 % of control; under setting [5], 114 % of control.

For the molecule `CCN(CC)P(=O)(N1CC1)N1CC1`, the T/C runs as follows: (dose: 16.5 mg/kg/injection, schedule: Q04DX003 (ip), vehicle: saline) 272 % of control; (dose: 25.0 mg/kg/injection, schedule: Q04DX003 (ip), vehicle: saline) 90 % of control.

For the molecule `CNC(=S)NNc1ccccc1`, the T/C was 96 % of control under setting [3]; 91 % of control under setting [4]; 90 % of control under setting [6]; 95 % of control under setting [5]; 95 % of control under setting [7]; 95 % of control (dose: 400.0 mg/kg/injection, schedule: Q01DX009 (ip), vehicle: Klucel (hydroxypropylcellulose) (HPC)). Besides, the T/C under setting [8] was 100 % of control.

As to `CC(=O)NS(=O)(=O)c1ccc(NC(=O)c2ccccc2C(=O)O)cc1`, the T/C was 100 % of control (dose: 50.0 mg/kg/injection, schedule: Q04DX003 (ip), vehicle: saline with Tween-80); 100 % of control under setting [9]; 100 % of control under setting [10].

As for `CCCCCCCCCCCC(=O)CC(SCC)c1ccccc1` (centres undefined), the T/C by setting is: (dose: 50.0 mg/kg/injection, schedule: Q01DX009 (ip), vehicle: saline with Tween-80) 96 % of control; (dose: 100.0 mg/kg/injection, schedule: Q01DX009 (ip), vehicle: saline with Tween-80) 87 % of control; (dose: 200.0 mg/kg/injection, schedule: Q01DX009 (ip), vehicle: saline with Tween-80) 89 % of control.

With `COc1ccc(N/N=C(\C)C2(O)Cc3c(O)c4c(c(O)c3C(OC3CC(N)C(O)C(C)O3)C2)C(=O)c2c(OC)cccc2C4=O)cc1` (centres undefined), the T/C is 123 % of control (dose: 1.73 mg/kg/injection, schedule: Q04DX003 (ip), vehicle: water) and 157 % of control (dose: 4.8 mg/kg/injection, schedule: Q04DX003 (ip), vehicle: water).

For the molecule `O=C1C(C(O)c2ccccc2)SC(c2ccccc2)N1c1ccccc1` (centres undefined), the T/C by setting is: (dose: 12.5 mg/kg/injection, schedule: Q04DX003 (ip), vehicle: Klucel (hydroxypropylcellulose) (HPC)) 96 % of control; (dose: 25.0 mg/kg/injection, schedule: Q04DX003 (ip), vehicle: Klucel (hydroxypropylcellulose) (HPC)) 96 % of control; (dose: 50.0 mg/kg/injection, schedule: Q04DX003 (ip), vehicle: Klucel (hydroxypropylcellulose) (HPC)) 96 % of control; under setting [8], 90 % of control.

In the case of `CC1(C)N=C(N)N=C(N)N1c1ccc(OCC(=O)Nc2ccc(S(=O)(=O)F)cc2)c(Cl)c1`, the T/C runs as follows: (dose: 44.0 mg/kg/injection, schedule: Q04DX003 (ip), vehicle: saline) 113 % of control; under setting [12], 190 % of control; (dose: 100.0 mg/kg/injection, schedule: Q01DX008 (ip), vehicle: saline) 195 % of control; (dose: 100.0 mg/kg/injection, schedule: Q01DX009 (ip), vehicle: saline) 205 % of control; (dose: 132.0 mg/kg/injection, schedule: Q04DX003 (ip), vehicle: saline) 166 % of control and 200 % of control; (dose: 200.0 mg/kg/injection, schedule: Q01DX008 (ip), vehicle: saline) 200 % of control. For the same molecule, the T/C is, setting by setting: under setting [13], 161 % of control and 215 % of control; (dose: 300.0 mg/kg/injection, schedule: Q04DX003 (ip), vehicle: saline) 245 % of control and 152 % of control.

As for `Cc1c[n+]([O-])ccc1Br`, the T/C is 100 % of control (dose: 6.25 mg/kg/injection, schedule: Q04DX003 (ip), vehicle: water); 100 % of control (dose: 12.5 mg/kg/injection, schedule: Q04DX003 (ip), vehicle: water); 112 % of control (dose: 25.0 mg/kg/injection, schedule: Q04DX003 (ip), vehicle: water); 99 % of control (dose: 50.0 mg/kg/injection, schedule: Q04DX003 (ip), vehicle: water); 100 % of control (dose: 100.0 mg/kg/injection, schedule: Q04DX003 (ip), vehicle: water).

Turning to `C[N+](C)(Cn1ncc2cc([N+](=O)[O-])ccc21)Cn1ncc2cc([N+](=O)[O-])ccc21`, the T/C under setting [9] is 113 % of control and the T/C under setting [10] was 104 % of control.

With `O=C(Oc1ccc([N+](=O)[O-])cc1)c1ccc(CBr)cc1`, the T/C by setting is: (dose: 25.0 mg/kg/injection, schedule: Q01DX009 (ip), vehicle: saline) 95 % of control; under setting [12], 100 % of control; (dose: 100.0 mg/kg/injection, schedule: Q04DX003 (ip), vehicle: saline) 90 % of control; under setting [13], 86 % of control.

With `CCCCNC(=S)Nc1sc(C)c(C)c1C(=O)OCC`, the T/C is 106 % of control under setting [9], 99 % of control under setting [10] and 99 % of control under setting [11].

With `CCOC(=O)C/C(C)=N/NC(=O)C(=O)N/N=C(\C)CC(=O)OCC`, the T/C under setting [1] was 113 % of control; the T/C under setting [2] was 96 % of control; the T/C (dose: 300.0 mg/kg/injection, schedule: Q01DX009 (ip), vehicle: saline with Tween-80) is 96 % of control.

Regarding `O=C1C=C(SCCO)C(=O)c2ccccc21`, the T/C (dose: 0.37 mg/kg/injection, schedule: Q04DX003 (ip), vehicle: saline) is 100 % of control; the T/C (dose: 0.75 mg/kg/injection, schedule: Q04DX003 (ip), vehicle: saline) is 104 % of control; the T/C (dose: 1.5 mg/kg/injection, schedule: Q04DX003 (ip), vehicle: saline) is 109 % of control.

`BrCCN(CCBr)c1ccc2c3c(cccc13)-c1ccccc1-2`: the T/C was 107 % of control (dose: 0.13 mg/kg/injection, schedule: Q01DX009 (ip), vehicle: saline); 92 % of control (dose: 0.25 mg/kg/injection, schedule: Q01DX009 (ip), vehicle: saline); 111 % of control (dose: 0.5 mg/kg/injection, schedule: Q01DX009 (ip), vehicle: saline); 107 % of control (dose: 0.68 mg/kg/injection, schedule: Q01DX009 (ip), vehicle: Klucel (hydroxypropylcellulose) (HPC)); 111 % of control (dose: 1.0 mg/kg/injection, schedule: Q01DX009 (ip), vehicle: Klucel (hydroxypropylcellulose) (HPC)); 111 % of control (dose: 1.0 mg/kg/injection, schedule: Q01DX009 (ip), vehicle: saline). In addition, the T/C reads like this: (dose: 3.12 mg/kg/injection, schedule: Q01DX009 (ip), vehicle: Klucel (hydroxypropylcellulose) (HPC)) 170 % of control; (dose: 21.0 mg/kg/injection, schedule: Q01DX009 (ip), vehicle: Klucel (hydroxypropylcellulose) (HPC)) 173 % of control; (dose: 30.0 mg/kg/injection, schedule: Q01DX009 (ip), vehicle: Klucel (hydroxypropylcellulose) (HPC)) 115 % of control; (dose: 45.0 mg/kg/injection, schedule: Q01DX009 (ip), vehicle: Klucel (hydroxypropylcellulose) (HPC)) 220 % of control; (dose: 70.0 mg/kg/injection, schedule: Q01DX009 (ip), vehicle: Klucel (hydroxypropylcellulose) (HPC)) 195 % of control; (dose: 176.0 mg/kg/injection, schedule: Q04DX003 (ip), vehicle: saline with Tween-80) 104 % of control. In addition, the T/C under setting [11] was 86 % of control.
